Measured values as given in ChEMBL document CHEMBL1135477, “Antifungal agents. 10. New derivatives of 1-[(aryl)[4-aryl-1H-pyrrol-3-yl]methyl]-1H-imidazole, synthesis, anti-candida activity, and quantitative structure-analysis relationship studies” (J Med Chem, 2002).

Biological target: Lanosterol 14-alpha demethylase (Candida albicans (strain SC5314 / ATCC MYA-2876) (Yeast), UniProt P10613)
Assay: Anticandida activity- (MIC90 compound) / (MIC90 bifonazole)
Type: functional

Lanosterol 14-alpha demethylase, sequence (P10613 whole entry): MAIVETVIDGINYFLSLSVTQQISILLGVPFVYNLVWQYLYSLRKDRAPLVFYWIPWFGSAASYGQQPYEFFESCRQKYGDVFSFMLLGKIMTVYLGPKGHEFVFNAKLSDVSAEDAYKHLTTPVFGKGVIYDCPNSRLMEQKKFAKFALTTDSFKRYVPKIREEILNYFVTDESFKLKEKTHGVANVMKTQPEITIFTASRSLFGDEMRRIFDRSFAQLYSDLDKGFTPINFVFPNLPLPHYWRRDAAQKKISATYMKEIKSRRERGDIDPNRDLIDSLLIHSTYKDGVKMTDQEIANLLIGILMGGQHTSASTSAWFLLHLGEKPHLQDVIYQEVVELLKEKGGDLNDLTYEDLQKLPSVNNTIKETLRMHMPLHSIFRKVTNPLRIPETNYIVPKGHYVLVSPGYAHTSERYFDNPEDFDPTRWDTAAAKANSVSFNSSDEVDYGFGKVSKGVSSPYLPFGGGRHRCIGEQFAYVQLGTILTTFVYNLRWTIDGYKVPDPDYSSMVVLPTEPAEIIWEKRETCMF

Structure (SMILES)	Ratio
COc1ccc([C@H](Cc2ccccc2Cl)n2ccnc2)cc1	63
Fc1ccc([C@@H](c2ccn(-c3ccc(F)cc3)c2)n2ccnc2)cc1	1
COc1ccc(C[C@@H](c2ccc(OC)cc2)n2cnnc2)cc1	64
COc1ccc([C@H](Cc2cccc(F)c2)n2ccnc2)cc1	66
Nc1ccc([C@@H](c2ccccc2)n2ccnc2)cc1	2.5
Clc1ccc([C@@H](c2ccc(-n3cccc3)cc2)n2ccnc2)cc1	0.5

Other lines, results leading:

Ratio	Structure (SMILES)
63	COc1ccc([C@H](Cc2ccccc2F)n2ccnc2)cc1
16	COc1ccc([C@H](Cc2ccc(F)cc2)n2ccnc2)cc1
41	COc1ccc(-c2cn(Cc3ccc(Cl)cc3Cl)cc2[C@@H](c2ccccc2)n2ccnc2)cc1
